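Grown in 96-well plates, cells were treated for 48 hours with each compound at five concentrations. Insufficient inhibition: endpoint recorded as highest concentration tested. TGI: total growth inhibition.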
Key:
Test in all cases: NCI-60 cell line screen, 48 h
[1] = tested on: UACC-62 melanoma
[2] = tested on: OVCAR-5 ovarian
[3] = tested on: UO-31 renal
[4] = tested on: MDA-MB-435
[5] = tested on: T-47D breast
[6] = tested on: HS 578T breast
[7] = tested on: SNB-19 CNS
[8] = tested on: NCI/ADR-RES ovarian
[9] = tested on: A549 NSCLC
[10] = tested on: MOLT-4 leukemia
[11] = tested on: HCC-2998 colon
[12] = tested on: UACC-257 melanoma
[13] = tested on: CCRF-CEM leukemia
[14] = tested on: SK-MEL-5 melanoma
[15] = tested on: U251 CNS
[16] = tested on: MALME-3M melanoma
[17] = tested on: IGROV1 ovarian
[18] = tested on: HCT-15 colon
[19] = tested on: OVCAR-3 ovarian
[20] = tested on: CAKI-1 renal
[21] = tested on: SN12C renal
[22] = tested on: TK-10 renal
[23] = tested on: OVCAR-8 ovarian
[24] = tested on: A498 renal
[25] = tested on: SF-539 CNS
[26] = tested on: SF-295 CNS
[27] = tested on: NCI-H460 lung
[28] = tested on: SW-620 colon
[29] = tested on: SK-MEL-2 melanoma
[30] = tested on: M14 melanoma
[31] = tested on: SF-268 CNS
[32] = tested on: COLO 205 colon
[33] = tested on: HCT-116 colon
[34] = tested on: OVCAR-4 ovarian
[35] = tested on: RPMI-8226 leukemia
[36] = tested on: BT-549 breast
[37] = tested on: HOP-92 NSCLC
[38] = tested on: HL-60(TB) leukemia
[39] = tested on: MDA-MB-231 breast
[40] = tested on: NCI-H23 lung
[41] = tested on: PC-3 prostate
[42] = tested on: MDA-N
[43] = tested on: KM12 colon
[44] = tested on: SK-OV-3 ovarian
[45] = tested on: HT29 colon
[46] = tested on: MCF7 breast
[47] = tested on: SK-MEL-28 melanoma
[48] = tested on: RXF 393 renal
[49] = tested on: ACHN renal
[50] = tested on: K-562 leukemia
[51] = tested on: 786-0 renal
[52] = tested on: EKVX NSCLC
[53] = tested on: LOX IMVI melanoma
[54] = tested on: SNB-75 CNS
[55] = tested on: NCI-H226 lung
[56] = tested on: DU-145 prostate
[57] = tested on: HOP-62 NSCLC
[58] = tested on: SR leukemia
[59] = tested on: NCI-H522 lung

Measured: TGI

On1c(-c2ccccc2)nc2ccccc2c1=S
42.8 µM: [29]
61.8 µM: [27]
74.2 µM: [41]
11.2 µM: [10]
not listed: [58] | [59]
> 100 µM: all other assays above

COc1ccc(N2C(=O)CSC2c2c[nH]c3ccccc23)cc1 (configuration not stated)
84.9 µM: [59]
not listed: [6] | [8] | [9] | [16] | [20] | [24] | [25] | [29] | [35] | [49] | [51] | [55]
> 100 µM: all other assays above

C=C(Cl)C(C)(Cl)CCC(Br)C(C)(C)Cl (configuration not stated)
50.1 µM: [20]
47.7 µM: [2]
47.5 µM: [56]
34.7 µM: [30]
50.6 µM: [35]
90.9 µM: [17]
28 µM: [53]
30.3 µM: [48]
88.6 µM: [26]
47.2 µM: [36]
31.6 µM: [21]
31.8 µM: [32] | [49]
71.9 µM: [27]
33.1 µM: [34]
67.2 µM: [13]
29.5 µM: [33] | [45]
34.2 µM: [11]
57.8 µM: [6]
53.4 µM: [57]
42.9 µM: [43]
50.7 µM: [40]
38.4 µM: [16]
33.5 µM: [54]
31.3 µM: [51]
39.2 µM: [44]
30.5 µM: [12]
39.9 µM: [4]
23.5 µM: [59]
48.1 µM: [47]
36.5 µM: [37]
71.7 µM: [25]
32.4 µM: [19]
93.6 µM: [58]
29.8 µM: [15]
92.1 µM: [8]
28.7 µM: [39]
33 µM: [42]
30.9 µM: [1] | [28]
37.6 µM: [29]
29.3 µM: [3]
30.8 µM: [14] | [46]
not listed: [5] | [18] | [23]
> 100 µM: all other assays above

Cc1ccc2c(c1)C(=O)C1(C2)Cc2cccc(C)c2C1=O (configuration not stated)
32.4 µM: [20]
not listed: [29] | [36]
> 100 µM: all other assays above
